Assay results published in patent US20120238549A1, “Nuclear Hormone Receptor Modulators” (ABBOTT LABORATORIES, priority 2011, published 2012).

Each compound was assayed against T1, Glucocorticoid Receptor (GR) (Homo sapiens, UniProt P04150) (assay: GR Florescence Polarization Assay (PolarScreen Glucocorticoid Receptor Competitor Assay, Red)). Conditions: Fluorescense polarization binding ranges; competition with fluorescent glucocorticoid, incubated overnight at 4° C.
T1 construct: purchased Invitrogen P2893
T1 sequence (P04150 1-777): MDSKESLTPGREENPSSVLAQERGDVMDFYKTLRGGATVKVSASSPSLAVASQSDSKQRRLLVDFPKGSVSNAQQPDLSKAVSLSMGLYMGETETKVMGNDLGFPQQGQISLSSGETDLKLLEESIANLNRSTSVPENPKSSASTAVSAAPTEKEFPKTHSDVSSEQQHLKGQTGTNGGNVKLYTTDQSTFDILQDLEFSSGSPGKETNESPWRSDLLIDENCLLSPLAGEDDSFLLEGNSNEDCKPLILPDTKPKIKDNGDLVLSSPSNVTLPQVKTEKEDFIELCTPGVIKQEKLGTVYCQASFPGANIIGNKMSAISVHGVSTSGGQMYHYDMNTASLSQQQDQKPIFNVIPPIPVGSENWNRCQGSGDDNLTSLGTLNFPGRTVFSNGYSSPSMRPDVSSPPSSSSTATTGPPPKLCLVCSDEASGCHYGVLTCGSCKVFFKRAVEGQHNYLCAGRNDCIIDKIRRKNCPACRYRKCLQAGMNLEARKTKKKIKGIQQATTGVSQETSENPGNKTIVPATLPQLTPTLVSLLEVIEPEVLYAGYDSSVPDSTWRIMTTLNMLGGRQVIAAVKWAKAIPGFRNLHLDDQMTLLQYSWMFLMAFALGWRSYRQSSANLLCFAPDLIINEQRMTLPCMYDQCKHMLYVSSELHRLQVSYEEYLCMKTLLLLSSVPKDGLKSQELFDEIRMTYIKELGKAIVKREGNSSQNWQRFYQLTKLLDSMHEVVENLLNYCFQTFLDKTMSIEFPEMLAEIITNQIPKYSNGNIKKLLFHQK
Procedure, shortened: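 Competitive fluorescence polarization using fluorescent glucocorticoid tracer and human GR in kit buffer. Compounds serially diluted 1:4 in DMSO, incubated with tracer and GR overnight at 4 °C before polarization read.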

Structure (SMILES)	IC50 [nM]
CC[C@@]1(O)CC[C@@]2(Cc3ccccc3)c3ccc(C(=O)NCCN4CCOCC4)cc3CCC[C@H]2C1 [Example 84]	> 10000
CC[C@@]1(O)CC[C@@]2(Cc3ccccc3)c3ccc(C(=O)NC4=NC(=O)CN4C)cc3CCC[C@H]2C1 [Example 85]	< 100
CC[C@@]1(O)CC[C@@]2(Cc3ccccc3)c3ccc(C(=O)Nc4ccc(-c5ccn[nH]5)nc4C)cc3CCC[C@H]2C1 [Example 86, (7aS,9R,11aS)-11a-Benzyl-9-ethyl-9-hydroxy-6,7,7a,8,9,10,11,11a-octahydro-5H-dibenzo[a,c]cycloheptene-3-carboxylic acid [2-methyl-6-(2H-pyrazol-3-yl)-pyridin-3-yl]-amide]	< 100
CC[C@@]1(O)CC[C@@]2(Cc3ccccc3)c3ccc(C(=O)Nc4ccc(-c5ccn[nH]5)nc4C)cc3CCC[C@H]2C1 [Example 87, (7aS,9R,11aS)-11a-Benzyl-9-ethyl-9-hydroxy-6,7,7a,8,9,10,11,11a-octahydro-5H-dibenzo[a,c]cycloheptene-3-carboxylic acid [2-methyl-6-(2H-pyrazol-3-yl)-pyridin-3-yl]-amide]	< 100
CC[C@@]1(O)CC[C@@]2(Cc3ccccc3)c3ccc(C(=O)Nc4ccc(-c5cn[nH]c5)nc4C)cc3CCC[C@H]2C1 [Example 88]	< 100
CC[C@@]1(O)CC[C@@]2(Cc3ccccc3)c3ccc(C(=O)N(C)c4cccnc4C)cc3CCC[C@H]2C1 [Example 89, (7aS,9R,11aS)-11a-Benzyl-9-ethyl-9-hydroxy-6,7,7a,8,9,10,11,11a-octahydro-5H-dibenzo[a,c]cycloheptene-3-carboxylic acid methyl-(2-methyl-pyridin-3-yl)-amide]	100 to 1000
CCOC[C@@]1(O)CC[C@@]2(Cc3ccccc3)c3ccc(C(=O)Nc4cccnc4C)cc3CCC[C@H]2C1 [Example 93]	< 100
CCCOC[C@@]1(O)CC[C@@]2(Cc3ccccc3)c3ccc(C(=O)Nc4cccnc4C)cc3CCC[C@H]2C1 [Example 98]	< 100
CCCOC[C@]1(O)CC[C@]2(Cc3ccccc3)c3ccc(C(=O)Nc4cccnc4C)cc3CCC[C@@H]2C1 [Example 99]	1000 to 10000
Cc1ncccc1NC(=O)c1ccc2c(c1)CCC[C@@H]1C[C@@](O)(C(F)(F)F)CC[C@@]21Cc1ccccc1 [Example 106, (7aR,9R,11aS)-11a-Benzyl-9-hydroxy-9-trifluoromethyl-6,7,7a,8,9,10,11,11a-octahydro-5H-dibenzo[a,c]cycloheptene-3-carboxylic acid (2-methyl-pyridin-3-yl)-amide]	< 100
Cc1ncccc1NC(=O)c1ccc2c(c1)CCC[C@H]1C[C@](O)(C(F)(F)F)CC[C@]21Cc1ccccc1 [Example 107, (7aS,9S,11aR)-11a-Benzyl-9-hydroxy-9-trifluoromethyl-6,7,7a,8,9,10,11,11a-octahydro-5H-dibenzo[a,c]cycloheptene-3-carboxylic acid (2-methyl-pyridin-3-yl)-amide]	100 to 1000
Cc1ncccc1NC(=O)c1ccc2c(c1)CN(C)C[C@H]1CC(=O)CC[C@@]21Cc1ccccc1 [Example 108, (4aS,11bS)-11b-Benzyl-6-methyl-N-(2-methylpyridin-3-yl)-3-oxo-2,3,4,4a,5,6,7,11b-octahydro-1H-dibenzo[c,e]azepine-9-carboxamide]	1000 to 10000
Cc1ncccc1NC(=O)c1ccc2c(c1)CN(C)C[C@H]1C[C@@H](O)CC[C@@]21Cc1ccccc1 [Example 109, (3S,4aS,11bS)-11b-benzyl-3-hydroxy-6-methyl-N-(2-methylpyridin-3-yl)-2,3,4,4a,5,6,7,11b-octahydro-1H-dibenzo[c,e]azepine-9-carboxamide]	> 10000
Cc1ncccc1NC(=O)c1ccc2c(c1)COC(=O)[C@H]1CC(=O)CC[C@@]21Cc1ccccc1 [Example 110, (7aS,11aS)-11a-Benzyl-N-(2-methylpyridin-3-yl)-7,9-dioxo-5,7,7a,8,9,10,11,11a-octahydrodibenzo[c,e]oxepine-3-carboxamide]	> 10000
